Consider three compounds from publication PMC5620609 (Pharmaceuticals, 2017).

Data set [1] has as its system human colon cancer cell line HCT-116. The data set can be described thus: In vitro growth inhibition (CellTiter-Glo), HCT-116. The data set is classed as cell-based. Particulars: HCT 116 TP53(-/-), read-out: GI50 (concentration of drug that inhibited 50% of cell growth), 72 h exposure. On the procedure:
Cells were grown in an appropriate medium for the cell line of interest; 96 well plates of each cell line were seeded with 5000 cells per well and left overnight. Drug exposed cells were incubated at 37 °C for 72 h. At the end of the 72 h exposure period, plates were removed for the CellTiter-Glo® assay. Luminescence was recorded on a Synergy 4.0. Assays were performed in triplicate.
Background: Cellular ATP, detected with luciferase, serves as a proxy for viable cell number.

Another data set deals with total DNMT. The data set can be described thus: Total DNMT inhibition, colorimetric assay in HCT-116 cells. It counts as cell-based, human. As to conditions: 24 h. On the procedure:
Total DNMT activity was measured in the colon cancer cell line HCT-116. The assay was performed using the EpiQuick^TM DNA Methyltransferase Activity/Inhibition Assay Kit (Epigentek, Brooklyn, NY, USA). […] Assays were performed three times in triplicate.

A further data set has as its target T1, RNR (Homo sapiens, UniProt P23921).
T1 construct: endogenous in cells; host or cells: HeLa
T1 sequence (P23921 1-792): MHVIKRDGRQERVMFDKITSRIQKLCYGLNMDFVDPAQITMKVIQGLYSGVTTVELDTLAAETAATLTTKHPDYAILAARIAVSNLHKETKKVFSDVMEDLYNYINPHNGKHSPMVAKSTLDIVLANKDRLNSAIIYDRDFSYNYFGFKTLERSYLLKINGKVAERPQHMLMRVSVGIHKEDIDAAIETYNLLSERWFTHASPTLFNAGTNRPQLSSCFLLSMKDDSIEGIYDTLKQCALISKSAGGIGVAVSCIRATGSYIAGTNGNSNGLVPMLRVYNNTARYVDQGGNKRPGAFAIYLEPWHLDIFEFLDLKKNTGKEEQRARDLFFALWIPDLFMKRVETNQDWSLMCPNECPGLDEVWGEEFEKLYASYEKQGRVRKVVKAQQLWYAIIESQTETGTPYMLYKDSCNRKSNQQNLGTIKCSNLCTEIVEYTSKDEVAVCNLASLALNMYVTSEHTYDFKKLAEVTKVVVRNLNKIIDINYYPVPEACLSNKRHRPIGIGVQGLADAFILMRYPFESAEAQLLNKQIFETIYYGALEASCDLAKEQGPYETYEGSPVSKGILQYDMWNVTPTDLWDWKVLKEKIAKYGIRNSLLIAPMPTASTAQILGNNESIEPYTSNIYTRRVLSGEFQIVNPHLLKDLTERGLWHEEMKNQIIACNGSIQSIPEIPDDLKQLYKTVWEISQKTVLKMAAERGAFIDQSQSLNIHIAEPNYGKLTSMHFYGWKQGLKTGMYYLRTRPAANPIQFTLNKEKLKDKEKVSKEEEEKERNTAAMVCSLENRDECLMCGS
T1 sequence (P31350 1-389 partner): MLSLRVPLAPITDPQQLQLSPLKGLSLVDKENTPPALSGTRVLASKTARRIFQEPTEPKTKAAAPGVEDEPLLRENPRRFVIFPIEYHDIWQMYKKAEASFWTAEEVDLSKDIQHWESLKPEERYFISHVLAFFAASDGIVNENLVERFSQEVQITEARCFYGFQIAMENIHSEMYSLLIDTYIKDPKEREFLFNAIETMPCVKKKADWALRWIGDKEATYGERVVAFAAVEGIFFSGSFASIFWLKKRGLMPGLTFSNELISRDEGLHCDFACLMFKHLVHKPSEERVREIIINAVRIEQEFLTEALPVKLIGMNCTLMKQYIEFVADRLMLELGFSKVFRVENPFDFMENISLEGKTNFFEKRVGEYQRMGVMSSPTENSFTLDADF
The data set can be described thus: RNR inhibition whole cell assay (HPLC of nucleotides from HeLa cell extracts). As to conditions: 50 µM, 16 h. It counts as cell-based. The source says:
Gemcitabine was used as a positive control.
The method used to extract and quantitate nucleotides followed previously reported procedures.

The conditions of data set [2]: reported for decitabine; cited from earlier work.
A short description of the next data set: in vivo. As to conditions: mouse, iv, 5 mg/kg.

Bounds are passed on as bounds.

Method for in vivo: Three mice were placed in a dose group on the first day of treatment (Day 1). […] Animals were observed daily for mortality and moribundity. Body weights were measured daily starting on day 1.

Turning to `Nc1ncn([C@@H]2O[C@H](CO)[C@@H](O)[C@H]2O)c(=O)n1` [5-azacytidine], the GI50 in data set [1] amounted to 620 nM. For the same compound, the “inhibition of total DNMT” value in the data set with total DNMT (1 µM, mean of 3 experiments) is on record as 19.2%; with total DNMT (10 µM) it was 48.6%.

`Nc1ccn([C@@H]2O[C@H](CO)[C@@H](O)C2(F)F)c(=O)n1` [Gemcitabine, gemcitabine, reference compound]: on RNR, the ADP concentration is 15,639, the ATP concentration is 26,296, the CTP concentration was 1297 and the GTP concentration worked out at 2036. Also, at RNR, the UTP concentration was 4801; the “dATP, peak area” value was determined as 0 AU; the “dGDP, peak area” value came out at 7.95 AU; the “dTDP, peak area” value was found to be 43.4 AU. On RNR, the “dUTP, peak area” value stood at 5.3 AU.

As to `Nc1ncn([C@H]2C[C@H](O)[C@@H](CO)O2)c(=O)n1` [decitabine, 5-aza-2′-deoxycytidine], the half-life (in general, how long it takes for the measured level to halve) in data set [2] is recorded as 30 min. For the same compound, in “in vivo”, the MTD at 3 weeks is < 5 mg/kg.
